{
  "source": "BindingDB's records for PubMed 1347569",
  "about": "(Stanford University, 1992)",
  "key": {"[1]": {"target": "T1, 5-hydroxytryptamine receptor 2C (Rattus norvegicus, UniProt P08909)", "T1 sequence (P08909 whole entry)": "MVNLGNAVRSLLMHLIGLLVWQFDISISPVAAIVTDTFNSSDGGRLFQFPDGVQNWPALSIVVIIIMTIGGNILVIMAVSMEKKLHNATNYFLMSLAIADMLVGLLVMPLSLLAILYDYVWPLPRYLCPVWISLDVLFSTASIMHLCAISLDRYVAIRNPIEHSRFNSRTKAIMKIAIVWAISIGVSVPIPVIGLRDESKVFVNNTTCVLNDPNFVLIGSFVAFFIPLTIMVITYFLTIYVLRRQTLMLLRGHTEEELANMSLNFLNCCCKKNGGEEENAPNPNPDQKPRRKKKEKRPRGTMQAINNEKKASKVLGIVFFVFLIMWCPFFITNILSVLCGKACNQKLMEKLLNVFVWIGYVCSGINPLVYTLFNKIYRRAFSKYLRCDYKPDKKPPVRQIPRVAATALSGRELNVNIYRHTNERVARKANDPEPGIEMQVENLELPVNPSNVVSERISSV"}, "[2]": {"target": "5-hydroxytryptamine receptor 2A (Rattus norvegicus, UniProt P14842)", "sequence (P14842 whole entry)": "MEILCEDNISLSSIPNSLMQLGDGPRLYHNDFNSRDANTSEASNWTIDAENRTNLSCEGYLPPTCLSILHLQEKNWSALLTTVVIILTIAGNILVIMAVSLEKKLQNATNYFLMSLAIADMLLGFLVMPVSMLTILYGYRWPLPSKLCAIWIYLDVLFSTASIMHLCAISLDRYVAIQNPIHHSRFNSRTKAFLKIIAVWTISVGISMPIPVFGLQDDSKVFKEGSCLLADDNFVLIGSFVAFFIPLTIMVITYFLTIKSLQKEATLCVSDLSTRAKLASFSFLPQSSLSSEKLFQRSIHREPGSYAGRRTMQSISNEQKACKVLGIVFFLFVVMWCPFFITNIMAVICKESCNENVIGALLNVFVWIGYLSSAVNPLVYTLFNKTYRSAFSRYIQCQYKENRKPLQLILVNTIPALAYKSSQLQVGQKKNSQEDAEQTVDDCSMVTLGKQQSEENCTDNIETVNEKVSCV"}},
  "note": "Structures can show the parent of a compound that is named as a salt.",
  "data": [
    {"smiles": "CN1CCN(CC/C=C2/c3ccccc3Sc3ccc(S(=O)(=O)N(C)C)cc32)CC1", "note": "[MLS000028463]", "values": [
      {"measurement": "Ki", "setting": "[1]", "value": 1550, "unit": "nM"}
    ]},
    {"smiles": "CN1CCCCC1CCN1c2ccccc2Sc2ccc([S+](C)[O-])cc21", "note": "(stereo unspecified)", "values": [
      {"measurement": "Ki", "setting": "[2]", "value": 6.3, "unit": "nM"},
      {"measurement": "Ki", "setting": "[1]", "value": 79, "unit": "nM"}
    ]},
    {"smiles": "CCNC(=O)N1CCN(CCCC(c2ccc(F)cc2)c2ccc(F)cc2)CC1", "values": [
      {"measurement": "Ki", "setting": "[1]", "value": 1150, "unit": "nM"}
    ]},
    {"smiles": "O=c1[nH]c2ccccc2n1C1CCN(CCCC(c2ccc(F)cc2)c2ccc(F)cc2)CC1", "note": "[1-(1-(4,4-bis(4-fluorophenyl)butyl)piperidin-4-yl)-1H-benzo[d]imidazol-2(3H)-one]", "values": [
      {"measurement": "Ki", "setting": "[2]", "value": 7.9, "unit": "nM"},
      {"measurement": "Ki", "setting": "[1]", "value": "> 10000", "unit": "nM"}
    ]},
    {"smiles": "c1ccc2nc(N3CCNCC3)ccc2c1", "note": "[2-Piperazin-1-yl-quinoline (Quipazine)]", "values": [
      {"measurement": "Ki", "setting": "[2]", "value": 613, "unit": "nM"},
      {"measurement": "Ki", "setting": "[1]", "value": 336, "unit": "nM"}
    ]},
    {"smiles": "CN1CCc2cc(Cl)c(O)cc2[C@@H](c2ccccc2)C1", "note": "[SCH 23390,R(+)]", "values": [
      {"measurement": "Ki", "setting": "[2]", "value": 19.9, "unit": "nM"},
      {"measurement": "Ki", "setting": "[1]", "value": 13.4, "unit": "nM"}
    ]},
    {"smiles": "CCN(CC)CCNC(=O)c1cc(Cl)c(N)cc1OC", "note": "[4-amino-5-chloro-N-[2-(diethylamino)ethyl]-2-methoxy-benzamide;hydrochloride]", "values": [
      {"measurement": "Ki", "setting": "[1]", "value": "> 10000", "unit": "nM"}
    ]},
    {"smiles": "CN1CCN(C2=Nc3cscc3C(=CC#N)c3cscc32)CC1", "note": "[NSC_3086153]", "values": [
      {"measurement": "Ki", "setting": "[2]", "value": 39.8, "unit": "nM"},
      {"measurement": "Ki", "setting": "[1]", "value": 62, "unit": "nM"}
    ]},
    {"smiles": "CC1CCN(CCCC(=O)c2ccc(F)cc2)CC1", "note": "[CAS_3575-80-2]", "values": [
      {"measurement": "Ki", "setting": "[1]", "value": 1340, "unit": "nM"}
    ]},
    {"smiles": "CN1CCN(C2=Nc3cc(F)ccc3Cc3ccccc32)CC1", "values": [
      {"measurement": "Ki", "setting": "[2]", "value": 7.9, "unit": "nM"},
      {"measurement": "Ki", "setting": "[1]", "value": 18.2, "unit": "nM"}
    ]},
    {"smiles": "O=C1CC2(CCCC2)CC(=O)N1CCCCN1CCN(c2nsc3ccccc23)CC1", "note": "[TIOSPERONE]", "values": [
      {"measurement": "Ki", "setting": "[1]", "value": 9.7, "unit": "nM"}
    ]},
    {"smiles": "O=c1[nH]c2ccccc2n1CCCN1CCC(n2c(=O)[nH]c3cc(Cl)ccc32)CC1", "values": [
      {"measurement": "Ki", "setting": "[2]", "value": 294, "unit": "nM"},
      {"measurement": "Ki", "setting": "[1]", "value": "> 10000", "unit": "nM"}
    ]},
    {"smiles": "CN1CCN(C2=Cc3cc(Cl)ccc3C(=CC#N)c3ccccc32)CC1", "note": "[CAS_79781-95-6]", "values": [
      {"measurement": "Ki", "setting": "[2]", "value": 0.79, "unit": "nM"},
      {"measurement": "Ki", "setting": "[1]", "value": 23, "unit": "nM"}
    ]},
    {"smiles": "OCCN1CCN(CC/C=C2/c3ccccc3Sc3ccc(C(F)(F)F)cc32)CC1", "note": "[(cis) 2-{4-[3-(2-Trifluoromethyl-thioxanthen-9-ylidene)-propyl]-piperazin-1-yl}-ethanol(Flupentixol)]", "values": [
      {"measurement": "Ki", "setting": "[2]", "value": 2, "unit": "nM"},
      {"measurement": "Ki", "setting": "[1]", "value": 102, "unit": "nM"}
    ]},
    {"smiles": "O=C(c1ccc(F)cc1)C1CCN(CCn2c(=O)[nH]c3ccccc3c2=O)CC1", "note": "[3-(2-{4-[(4-fluorophenyl)carbonyl]piperidin-1-yl}ethyl)-1,2,3,4-tetrahydroquinazoline-2,4-dione]", "values": [
      {"measurement": "Ki", "setting": "[1]", "value": 28.5, "unit": "nM"}
    ]},
    {"smiles": "Clc1cncc(N2CCNCC2)n1", "note": "[L-630,571]", "values": [
      {"measurement": "Ki", "setting": "[2]", "value": "> 10000", "unit": "nM"},
      {"measurement": "Ki", "setting": "[1]", "value": 255, "unit": "nM"}
    ]}
  ]
}
